The values that follow come from paper PMC6311893, “Computational prediction of plasma protein binding of cyclic peptides from small molecule experimental data using sparse modeling techniques” (BMC Bioinformatics, 2018).

Where two headings read alike, the source gives them in different places. Positions of bridges follow the written chain, without caps; N, C: chain ends. Residues, ends and D or L forms follow the SMILES beside them.

The nature of one series: in vitro. In kind it is in vitro ADME. The following applies: human, plasma, Exp. PPB (fb*). Here is the method: (§1) As the number of publicly available data of cyclic peptide drugs is small compared to that of small molecule, we additionally designed and experimented with 16 cyclic peptides composed exclusively of natural amino acids. First, linear peptides were synthesized. Then, circularization was achieved by making a disulfide bond between N-terminal and C-terminal cysteine residues and confirmed by TOF/MS and HPLC analyses. Human PPB values fb were determined by the equilibrium dialysis method. Frozen human plasma was thawed immediately at room temperature. Then, the plasma was centrifuged at 3220 g for 10 min to remove clots and the supernatant was collected into a fresh tube. The working solutions of test compounds were prepared in DMSO at a concentration of 200 μM. Then, 3 μL of the working solution was removed for mixing with 597 μL of human plasma to achieve a final concentration of 1 μM (0.5% DMSO). The plasma samples were vortexed thoroughly. The dialysis membranes (HTD 96a/b Dialysis Membrane Strips MWCO 12-14 K, Cat. #1101, Batch# 1141 (12–17)) were soaked in ultrapure water for 60 min to separate the strips, then in 20% ethanol for 20 min, and finally in the dialysis buffer (100 mM sodium phosphate and 150 mM NaCl) for 20 min. The dialysis apparatus was assembled according to the manufacturer’s instructions. Each cell was filled with the spiked plasma sample and dialyzed against equal volume of the dialysis buffer. The assay was performed in duplicate. The dialysis plate was sealed and incubated in an incubator at 37 °C with 5% CO2 at 100 rpm for 6 h. At the end of incubation, the seal was removed and 50 μL of samples from both buffer and plasma chambers were transferred to wells of a 96-well plate. 50 μL of blank plasma was added to each buffer sample and an equal volume of phosphate buffered saline was supplemented to the collected plasma sample. […] Samples in the plate were vortexed for 5 min and centrifuged at 3220 g for 30 min at 4 °C. Then, the supernatant was transferred to a new 96-well plate with 100 μL or 200 μL water (depending on the LC-MS signal response and peak shape) for LC-MS/MS analysis.

Another series has as its system human plasma. Description: in vitro. In kind it is in vitro ADME. The following applies: 6 h, 1 μM. Here is the method: as §1
Series [1] concerns plasma protein. The following applies: cited from earlier work.
For series [2], the system named is plasma protein. The following applies: plasma; cited from earlier work.
Setting [3] is: fraction bound (0-1), public cyclic peptide drug dataset, ref DrugBank [39].

As for `N=C(N)NCCC[C@@H]1NC(=O)[C@@H]2CCCN2C(=O)[C@H](CC(N)=O)NC(=O)[C@H](CCC(N)=O)NC(=O)[C@H](Cc2ccccc2)NC(=O)[C@H](Cc2ccc(O)cc2)NC(=O)[C@@H](N)CSSC[C@@H](C(=O)O)NC(=O)CNC1=O` [Pep.1] (H-CYFQNPRGC-OH; disulfide 1-9), the free fraction (fraction unbound) (as a rule, free concentration divided by total concentration) at 6 h, 1 μM in the series “in vitro” is 0.76. The “Exp. PPB (fb*)” value in the series with human plasma came out at 0.242.
The compound `CC[C@H](C)[C@@H]1NC(=O)[C@H](Cc2ccc(O)cc2)NC(=O)[C@@H](N)CSSC[C@@H](C(=O)O)NC(=O)CNC(=O)[C@H](CC(C)C)NC(=O)[C@@H]2CCCN2C(=O)[C@H](CC(N)=O)NC(=O)[C@H](CCC(N)=O)NC1=O` [Pep.2] (H-CYIQNPLGC-OH; disulfide 1-9; N-terminus and C-terminus assumed) showed a fraction unbound at 6 h, 1 μM in the series “in vitro” of 0.995.
Still for that read-out and setting: next, `CC(C)[C@@H]1NC(=O)[C@H](CCCCN)NC(=O)[C@H](Cc2c[nH]c3ccccc23)NC(=O)[C@H](C)NC(=O)[C@@H](N)CSSC[C@@H](C(=O)O)NC(=O)[C@H]([C@@H](C)O)NC1=O` [Pep.3] (H-CAWKVTC-OH; disulfide 1-7; N-terminus and C-terminus assumed): 1; `NCCCC[C@@H]1NC(=O)[C@H](Cc2c[nH]c3ccccc23)NC(=O)[C@H](Cc2ccccc2)NC(=O)[C@@H]2CCCN2C(=O)[C@H](Cc2ccccc2)NC(=O)[C@@H](N)CSSC[C@@H](C(=O)O)NC(=O)[C@H](Cc2ccc(O)cc2)NC1=O` [Pep.4] (H-CFPFWKYC-OH; disulfide 1-8; N-terminus and C-terminus assumed): 0.384.
The same measure, in the same setting: next, `CC(C)[C@@H]1NC(=O)[C@H](CCCNC(=N)N)NC(=O)[C@@H]2CCCN2C(=O)[C@H](CCCNC(=N)N)NC(=O)[C@H](Cc2c[nH]c3ccccc23)NC(=O)[C@@H](N)CSSC[C@@H](C(=O)O)NC(=O)[C@H](CCCNC(=N)N)NC(=O)[C@H](C)NC1=O` [Pep.5] (H-CWRPRVARC-OH; disulfide 1-9; N-terminus and C-terminus assumed): 1.
In the series “in vitro”, `C[C@@H](O)[C@@H]1NC(=O)[C@H](CCCCN)NC(=O)[C@H](Cc2c[nH]c3ccccc23)NC(=O)[C@H](Cc2ccccc2)NC(=O)[C@H](Cc2ccccc2)NC(=O)[C@@H](N)CSSC[C@@H](C(=O)O)NC(=O)[C@H]([C@@H](C)O)NC1=O` [Pep.6] (H-CFFWKTTC-OH; disulfide 1-8; N-terminus and C-terminus assumed) had a fraction unbound at 6 h, 1 μM of 0.737.
`CC(C)C[C@@H]1NC(=O)[C@H](CC(C)C)NC(=O)[C@H](CCCCN)NC(=O)[C@@H](N)CSSC[C@@H](C(=O)O)NC(=O)[C@H]([C@@H](C)O)NC(=O)[C@H](CCCCN)NC(=O)[C@H](CCCCN)NC1=O` [Pep.7] (H-CKLLKKTC-OH; disulfide 1-8; N-terminus and C-terminus assumed) yielded a fraction unbound at 6 h, 1 μM in the series “in vitro” of 1.
Same read-out and setting: the figure for `N[C@H]1CSSC[C@@H](C(=O)O)NC(=O)[C@H](Cc2ccc(O)cc2)NC(=O)[C@H](Cc2ccc(O)cc2)NC(=O)[C@H](Cc2ccc(O)cc2)NC(=O)[C@H](Cc2ccc(O)cc2)NC(=O)[C@H](Cc2ccc(O)cc2)NC(=O)[C@H](Cc2ccc(O)cc2)NC(=O)[C@H](Cc2ccc(O)cc2)NC1=O` [Pep.8] (H-CYYYYYYYC-OH; disulfide 1-9; N-terminus and C-terminus assumed) is 0.145; for `CC(C)C[C@@H]1NC(=O)CNC(=O)[C@H](C)NC(=O)[C@@H](N)CSSC[C@@H](C(=O)O)NC(=O)[C@H](C)NC(=O)[C@H](C)NC(=O)[C@H](CC(C)C)NC(=O)[C@H](C(C)C)NC1=O` [Pep.9] (H-CAGLVLAAC-OH; disulfide 1-9; N-terminus and C-terminus assumed) it is 1; for `CC(C)[C@@H]1NC(=O)[C@H](Cc2c[nH]c3ccccc23)NC(=O)[C@@H](N)CSSC[C@@H](C(=O)O)NC(=O)[C@H](CCC(=O)O)NC(=O)[C@H](Cc2ccccc2)NC(=O)[C@H](CCC(N)=O)NC(=O)[C@@H]2CCCN2C(=O)[C@H](Cc2c[nH]cn2)NC1=O` [Pep.10] (H-CWVHPQFEC-OH; disulfide 1-9; N-terminus and C-terminus assumed) it is 0.633.
On the same count and under the same terms, the figure for `NC(=O)CC[C@@H]1NC(=O)[C@H](Cc2c[nH]c3ccccc23)NC(=O)[C@@H]2CCCN2C(=O)[C@H](CCC(N)=O)NC(=O)[C@H](CC(N)=O)NC(=O)[C@@H](N)CSSC[C@@H](C(=O)O)NC1=O` [Pep.11] (H-CNQPWQC-OH; disulfide 1-7; N-terminus and C-terminus assumed) is 1.
Consider `CC(C)C[C@@H]1NC(=O)[C@H](Cc2c[nH]c3ccccc23)NC(=O)[C@H](CC(=O)O)NC(=O)[C@H](CC(=O)O)NC(=O)[C@H](Cc2ccccc2)NC(=O)[C@H](CO)NC(=O)[C@@H](N)CSSC[C@@H](C(=O)O)NC(=O)[C@H](C)NC1=O` [Pep.12] (H-CSFDDWLAC-OH; disulfide 1-9; N-terminus and C-terminus assumed), for which the fraction unbound at 6 h, 1 μM in “in vitro” is 0.2.
Still for that read-out and setting: next, `CC(C)C[C@@H]1NC(=O)[C@H](Cc2ccc(O)cc2)NC(=O)[C@@H](N)CSSC[C@@H](C(=O)O)NC(=O)CNC(=O)[C@H](Cc2c[nH]cn2)NC(=O)[C@H](Cc2ccc(O)cc2)NC(=O)[C@H](CCC(=O)O)NC(=O)[C@H](C)NC1=O` [Pep.13] (H-CYLAEYHGC-OH; disulfide 1-9; N-terminus and C-terminus assumed): 0.651.
For the compound `C[C@@H]1NC(=O)[C@H](Cc2c[nH]c3ccccc23)NC(=O)[C@H](C)NC(=O)[C@@H]2CCCN2C(=O)[C@H](C)NC(=O)[C@@H](N)CSSC[C@@H](C(=O)O)NC(=O)CNC(=O)[C@H](Cc2c[nH]cn2)NC1=O` [Pep.14] (H-CAPAWAHGC-OH; disulfide 1-9; N-terminus and C-terminus assumed), the unbound share (fraction unbound) at 6 h, 1 μM in “in vitro” was 0.926.
Regarding `CC(C)[C@@H]1NC(=O)[C@H](C)NC(=O)[C@H](CO)NC(=O)[C@H](Cc2ccc(O)cc2)NC(=O)[C@H](C(C)C)NC(=O)[C@H](Cc2ccccc2)NC(=O)[C@@H](N)CSSC[C@@H](C(=O)O)NC1=O` [Pep.15] (H-CFVYSAVC-OH; disulfide 1-8; N-terminus and C-terminus assumed), the fraction unbound at 6 h, 1 μM in “in vitro” is 0.847.
In the series “in vitro”, `CC[C@H](C)[C@@H]1NC(=O)[C@H](CCCNC(=N)N)NC(=O)[C@@H](N)CSSC[C@@H](C(=O)O)NC(=O)[C@H](Cc2ccc(O)cc2)NC(=O)[C@H](CCCNC(=N)N)NC(=O)[C@H](CCCCN)NC1=O` [Pep.16] (H-CRIKRYC-OH; disulfide 1-7; N-terminus and C-terminus assumed) gave a free fraction (fraction unbound) at 6 h, 1 μM of 0.849.
For Anidulafungin [reference compound], the results for the “PPB (fb)” value in the series with plasma protein [1] (setting [3]) and in the series with plasma protein [2] were 0.99 and 0.84, respectively.
For Eptifibatide [reference compound], the “PPB (fb)” value with plasma protein [1] and with plasma protein [2] was 0.25 each time.
Regarding Micafungin [reference compound], the “PPB (fb)” value with plasma protein [1] (setting [3]) is given as 0.99; in the series with plasma protein [2], 1.
Oxytocin [reference compound]: the “PPB (fb)” value is given as 0.3 with plasma protein [1] and 0 in the series with plasma protein [2].
Turning to Quinupristin [reference compound], the “PPB (fb)” value is 0.55-0.78 with plasma protein [1] and 0.66 in the series with plasma protein [2].
As to Vancomycin [reference compound], the “PPB (fb)” value with plasma protein [1] (setting [3]) is 0.55; with plasma protein [2], 0.37.
